# Data: the supplement of paper PMC10307832
# Tests used:
# Assay in all cases: relative viability (nuclei count vs DMSO), 5 days (fraction); higher = more cells survive
# NCI-H650 = system: NCI-H650
# How it was run: (§1)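 Nuclei were stained with Hoechst during a one-step fixation (final 0.05% Triton X-100, 1% formaldehyde, 1 ug/ml Hoechst) carried out 5 days after dosing, then counted on 4× images. The cells, lung cancer lines in 1536-well plates, had been dosed by pin tool the day after seeding with one drug alone or a fixed anchor-drug dose plus five library-drug doses (not always all listed) in √10 steps. Relative viability is the nuclei count in treated wells divided by that in vehicle wells, and each value is the median of duplicate plates.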
# NCI-H838 = system: NCI-H838
# How it was run: as §1
# ChaGo-K-1 = system: ChaGo-K-1
# How it was run: as §1
# NCI-H1975 = system: NCI-H1975
# How it was run: as §1
# PC-3 [JPC-3] = system: PC-3 [JPC-3]
# How it was run: as §1
# NCI-H1355 = system: NCI-H1355
# How it was run: as §1
# HCC-78 = system: HCC-78
# How it was run: as §1
# NCI-H358 = system: NCI-H358
# How it was run: as §1
# BEN = system: BEN
# How it was run: as §1
# LK-2 = system: LK-2
# How it was run: as §1
# NCI-H1944 = system: NCI-H1944
# How it was run: as §1
# LC-2-ad = system: LC-2-ad
# How it was run: as §1
# NCI-H596 = system: NCI-H596
# How it was run: as §1
# SK-MES-1 = system: SK-MES-1
# How it was run: as §1
# NCI-H661 = system: NCI-H661
# How it was run: as §1
# NCI-H1666 = system: NCI-H1666
# How it was run: as §1
# LXF-289 = system: LXF-289
# How it was run: as §1
# LU99A = system: LU99A
# How it was run: as §1
# NCI-H1651 = system: NCI-H1651
# How it was run: as §1
# NCI-H2087 = system: NCI-H2087
# How it was run: as §1
# LCLC-97TM1 = system: LCLC-97TM1
# How it was run: as §1
smiles,measurement,setting,value
COc1cc2nccc(Oc3ccc(NC(=O)Nc4cc(C)on4)c(Cl)c3)c2cc1OC [Tivozanib] + CS(=O)(=O)N1CCN(Cc2cc3nc(-c4cccc5[nH]ncc45)nc(N4CCOCC4)c3s2)CC1 [Pictilisib] (partner 1 µM),relative viability,NCI-H650; first compound 0.005 µM,0.674
same,relative viability,NCI-H650; first compound 0.01581 µM,0.866
same,relative viability,NCI-H650; first compound 0.05 µM,0.771
same,relative viability,NCI-H650; first compound 0.1581 µM,0.78
same,relative viability,NCI-H650; first compound 0.5 µM,0.77
same,relative viability,NCI-H838; first compound 0.005 µM,0.443
same,relative viability,NCI-H838; first compound 0.01581 µM,0.498
same,relative viability,NCI-H838; first compound 0.05 µM,0.453
same,relative viability,NCI-H838; first compound 0.5 µM,0.501
same,relative viability,ChaGo-K-1; first compound 0.005 µM,0.591
same,relative viability,ChaGo-K-1; first compound 0.01581 µM,0.779
same,relative viability,ChaGo-K-1; first compound 0.05 µM,0.559
same,relative viability,ChaGo-K-1; first compound 0.1581 µM,0.388
same,relative viability,ChaGo-K-1; first compound 0.5 µM,0.504
same,relative viability,NCI-H1975; first compound 0.005 µM,0.278
same,relative viability,NCI-H1975; first compound 0.01581 µM,0.277
same,relative viability,NCI-H1975; first compound 0.05 µM,0.271
same,relative viability,NCI-H1975; first compound 0.1581 µM,0.234
same,relative viability,NCI-H1975; first compound 0.5 µM,0.275
same,relative viability,PC-3 [JPC-3]; first compound 0.005 µM,0.705
same,relative viability,PC-3 [JPC-3]; first compound 0.01581 µM,0.698
same,relative viability,PC-3 [JPC-3]; first compound 0.05 µM,0.757
same,relative viability,PC-3 [JPC-3]; first compound 0.1581 µM,0.604
same,relative viability,PC-3 [JPC-3]; first compound 0.5 µM,0.706
same,relative viability,NCI-H1355; first compound 0.005 µM,0.381
same,relative viability,NCI-H1355; first compound 0.01581 µM,0.41
same,relative viability,NCI-H1355; first compound 0.05 µM,0.441
same,relative viability,NCI-H1355; first compound 0.5 µM,0.387
same,relative viability,HCC-78; first compound 0.005 µM,0.188
same,relative viability,HCC-78; first compound 0.01581 µM,0.235
same,relative viability,HCC-78; first compound 0.05 µM,0.207
same,relative viability,HCC-78; first compound 0.1581 µM,0.14
same,relative viability,HCC-78; first compound 0.5 µM,0.206
same,relative viability,NCI-H358; first compound 0.005 µM,0.345
same,relative viability,NCI-H358; first compound 0.01581 µM,0.332
same,relative viability,NCI-H358; first compound 0.05 µM,0.386
same,relative viability,NCI-H358; first compound 0.1581 µM,0.254
same,relative viability,NCI-H358; first compound 0.5 µM,0.367
same,relative viability,BEN; first compound 0.005 µM,0.61
same,relative viability,BEN; first compound 0.01581 µM,0.541
same,relative viability,BEN; first compound 0.05 µM,0.603
same,relative viability,BEN; first compound 0.5 µM,0.505
same,relative viability,LK-2; first compound 0.005 µM,0.574
same,relative viability,LK-2; first compound 0.01581 µM,0.472
same,relative viability,LK-2; first compound 0.05 µM,0.6
same,relative viability,LK-2; first compound 0.1581 µM,0.459
same,relative viability,LK-2; first compound 0.5 µM,0.909
same,relative viability,NCI-H1944; first compound 0.005 µM,0.327
same,relative viability,NCI-H1944; first compound 0.01581 µM,0.365
same,relative viability,NCI-H1944; first compound 0.05 µM,0.356
same,relative viability,NCI-H1944; first compound 0.1581 µM,0.289
same,relative viability,NCI-H1944; first compound 0.5 µM,0.307
same,relative viability,LC-2-ad; first compound 0.005 µM,0.417
same,relative viability,LC-2-ad; first compound 0.01581 µM,0.353
same,relative viability,LC-2-ad; first compound 0.05 µM,0.263
same,relative viability,LC-2-ad; first compound 0.1581 µM,0.204
same,relative viability,LC-2-ad; first compound 0.5 µM,0.159
same,relative viability,NCI-H596; first compound 0.005 µM,0.28
same,relative viability,NCI-H596; first compound 0.01581 µM,0.364
same,relative viability,NCI-H596; first compound 0.05 µM,0.427
same,relative viability,NCI-H596; first compound 0.1581 µM,0.411
same,relative viability,NCI-H596; first compound 0.5 µM,0.326
same,relative viability,SK-MES-1; first compound 0.005 µM,0.325
same,relative viability,SK-MES-1; first compound 0.01581 µM,0.34
same,relative viability,SK-MES-1; first compound 0.05 µM,0.416
same,relative viability,SK-MES-1; first compound 0.1581 µM,0.289
same,relative viability,SK-MES-1; first compound 0.5 µM,0.363
same,relative viability,NCI-H661; first compound 0.005 µM,0.37
same,relative viability,NCI-H661; first compound 0.01581 µM,0.339
same,relative viability,NCI-H661; first compound 0.05 µM,0.55
same,relative viability,NCI-H661; first compound 0.1581 µM,0.28
same,relative viability,NCI-H661; first compound 0.5 µM,0.38
same,relative viability,NCI-H1666; first compound 0.005 µM,0.404
same,relative viability,NCI-H1666; first compound 0.01581 µM,0.393
same,relative viability,NCI-H1666; first compound 0.05 µM,0.384
same,relative viability,NCI-H1666; first compound 0.1581 µM,0.389
same,relative viability,NCI-H1666; first compound 0.5 µM,0.478
same,relative viability,LXF-289; first compound 0.005 µM,0.736
same,relative viability,LXF-289; first compound 0.01581 µM,0.814
same,relative viability,LXF-289; first compound 0.05 µM,0.758
same,relative viability,LXF-289; first compound 0.1581 µM,0.764
same,relative viability,LXF-289; first compound 0.5 µM,0.807
same,relative viability,LU99A; first compound 0.005 µM,0.315
same,relative viability,LU99A; first compound 0.01581 µM,0.339
same,relative viability,LU99A; first compound 0.05 µM,0.348
same,relative viability,LU99A; first compound 0.5 µM,0.317
same,relative viability,NCI-H1651; first compound 0.005 µM,0.464
same,relative viability,NCI-H1651; first compound 0.01581 µM,0.581
same,relative viability,NCI-H1651; first compound 0.05 µM,0.613
same,relative viability,NCI-H1651; first compound 0.1581 µM,0.484
same,relative viability,NCI-H1651; first compound 0.5 µM,0.783
same,relative viability,NCI-H2087; first compound 0.005 µM,0.765
same,relative viability,NCI-H2087; first compound 0.01581 µM,1.08
same,relative viability,NCI-H2087; first compound 0.05 µM,0.851
same,relative viability,NCI-H2087; first compound 0.1581 µM,0.738
same,relative viability,NCI-H2087; first compound 0.5 µM,1.02
same,relative viability,LCLC-97TM1; first compound 0.005 µM,0.206
same,relative viability,LCLC-97TM1; first compound 0.01581 µM,0.23
same,relative viability,LCLC-97TM1; first compound 0.1581 µM,0.119
same,relative viability,LCLC-97TM1; first compound 0.5 µM,0.164
